Source: patent publication US10940110B2, “Method and system for the treatment of chronic COPD with nebulized anticholinergic administrations” (Sunovion Respiratory Development Inc., priority 2008, dated 2021)

Tested on: patients with COPD
Settings: 200 μg
[1] = high efficiency nebulizer, 24 hour time point

Protocol: GIS 200 μg/0.5 mL oral inhalation via eFlow.
GIS 75 μg/0.5 mL oral inhalation via eFlow; 2. GIS 500 μg/0.5 mL oral; 3. GIS 1000 n/0.5 mL oral inhalation via eFlow.
The primary efficacy variable was serial spirometry throughout the 36 hour period after dosing. The spirometry assessments include forced expiratory volume in one second (FEV1), forced vital capacity (FVC), peak expiratory flow rate (PEFR), FEV1% of predicted normal.

**Q.** How did the “increase in FEV1 above baseline (% change from baseline)” value (conventional jet nebulizer, 12 hr time point and beyond) turn out when `C[N+]1(C)CCC(OC(=O)C(O)(c2ccccc2)C2CCCC2)C1` (centres unmarked) [glycopyrrolate, 3-[(cyclopentylhydroxyphenylacetyl)oxy]-1,1-dimethylpyrrolidinium] was run?
**A.** Its value is at most 10%.

**Q.** And the “increase in FEV1 above baseline” value (conventional jet nebulizer, any time point after 12 hr)?
**A.** The value was at most 100 mL.

**Q.** And the “mean improvement in peak lung function (peak FEV1) compared to the same dose in the conventional jet nebulizer” value (high efficiency nebulizer vs conventional jet nebulizer)?
**A.** Its value is “about 45 mL”.

**Q.** And the “improvement in FEV1 above baseline (% change from baseline)” value [1]?
**A.** Its value is “greater than 10%”.

**Q.** What about the “improvement in lung function, FEV1 above baseline” value [1] of the same compound?
**A.** The value was “greater than 100 mL”.
